Columns and labels:
HeLa cells = experiment: Widefield microscopy for signaling phenotype analysis; format: cell-based; conditions: EGFP-DNCR2-TIAM, BFP-GNCR1-LARG and NS3a-CAAX in HeLa cells
Description: Widefield images were collected in an environmental chamber with humidity control, 37° C., and 5% CO2 on a Leica DMi8 automated fluorescence microscope. Cells were plated on glass-bottomed 96-well plates (Cellvis). Plates were treated with 10 μg/mL bovine fibronectin (Sigma Aldrich) for 1 hour and washed once with PBS.
The cell line used was TRex™-HeLa (ThermoFisher Scientific), into which Lifeact-mCherry™ was stably integrated into the doxycycline-regulated Flp-In site by co-transfection of the pCDNA5-FRT/TO-Lifeact-mCherry™ vector with the Flp recombinase plasmid pOG44 (ThermoFisher Scientific) according to manufacturer's protocols. Lifeact-mCherry™ was induced by addition of 1 μg/mL doxycycline to culture media. For expression of signaling effector proteins, 1 day prior to imaging, 5×10^6 cells were transiently transfected with 10 μg DNA in a 100 μL electroporation tip using a Neon transfection system (ThermoFisher Scientific) according to manufacturer's recommendations for HeLa cells. 5×10^3 cells were plated in each well of the 96-well plate used for imaging. Cells recovered in complete DMEM with 10% FBS overnight. […] For Rac/Rho regulation, the construct PB-NS3a-CAAX-IRES-EGFP-DNCR2-TIAM-P2a-BFP-GNCR1-LARG was used, with images collected for the mCherry™ (Lifeact) and EGFP (DNCR2-TIAM) channels. […]

GFP, CD95 and CXCR4 = experiment: 3-gene experiment (GFP, CD95, CXCR4) by RT-qPCR; format: cell-based; conditions: 10 μM danoprevir, 1 μM grazoprevir, 1 μM asunaprevir
From the text: Cells were harvested on day 5 as described above for other samples to be analyzed to qPCR.

NS3a = conditions: read-out: NS3a:drug Ki; published enzyme inhibition studies; cited from earlier work

In the case of `CC(C)(C)OC(=O)N[C@H]1CCCCC/C=C\[C@@H]2C[C@@]2(C(=O)NS(=O)(=O)C2CC2)NC(=O)[C@@H]2C[C@@H](OC(=O)N3Cc4cccc(F)c4C3)CN2C1=O` [danoprevir], the cell shape change (HeLa cells) is given as “caused cell expansion”, the “transcriptional output state in 3-gene system” value (GFP, CD95 and CXCR4) is given as “CD95 expression under control of DNCR2” and the Ki (NS3a) is given as 1 nM.

Reference: patent US20220025003A1, “REAGENTS AND METHODS FOR CONTROLLING PROTEIN FUNCTION AND INTERACTION” (University of Washington, priority 2018, published 2022)
